These results are taken from patent US10980899B2, “Differential diagnosis” (GE Healthcare Limited, priority 2016, dated 2021).

Structures are written as SMILES. Read-outs that look alike come from different tables or passages of the source.

Test [1] addresses T1, SERT (Homo sapiens, UniProt P31645).
T1 construct: from tissue; host or cells: living patients' brain: hypothalamus, thalamus, pons (extrastriatal regions)
The test is described as follows: [123I]FP-CIT SPECT ROI analysis, extrastriatal (hypothalamus) binding ratios. In kind it is in vivo. Particulars: without SSRI users, reference cerebellum. An excerpt: Diagnoses of patients were verified using their medical records. […]
One-way ANOVA tests were used where appropriate. Post-hoc testing was done with Hochberg GT2 correction. An alpha level of 0.05 was used.

The target in test [2] is T1, SERT. The test can be described thus: Voxel-based analysis of [123I]FP-CIT SPECT, extrastriatal binding. As to conditions: groups without SSRI users. In kind it is in vivo. As for the experimental part: All voxels in the [^123I]FP-CIT SPECT scan were adjusted by the mean binding in the cerebellar reference region according to: [(voxel−REF)/REF]. Voxel-based between-group analyses were performed in SPM8 and explicitly masked for the relevant ROI, using the same masks as the ROI analysis. Statistical threshold was set to P<0.05, Family-Wise Error (FWE) corrected for multiple comparisons, Ke>0. Age was included as nuisance covariate in all analyses.
Masks were based on the Automated anatomical labeling (AAL) atlas and created with the Wake-Forest University PickAtlas tool 3.0. Finally, the results of groups on SSRIs versus not being on a SSRI while scanned were compared with a ROI analysis.
Voxel-Based, Groups without SSRI Users, Extrastriatal Binding

In test [3] the target is serotonin transporter (SERT) (Homo sapiens, UniProt P31645). Particulars: Abi-Dargham et al. 1996; cited from earlier work.
The target of the next test is DAT (Homo sapiens, UniProt Q01959). As to conditions: without SSRI users, reference cerebellum. An excerpt: For this retrospective study, a selection was made from a database of patients diagnosed with either PD, MSA or PSP and for whom a [^123I]FP-CIT-SPECT scan was available. Diagnoses of patients were verified using their medical records. Patients no longer receiving treatment or clinical follow-up were approached by letter and diagnoses were retrieved from their current attending neurologist. This procedure was approved by the local Medical Ethics Committee of the VUmc and all patients provided written informed consent. […] Prior to analysis of [^123I]FP-CIT-SPECT binding ratios (BR), MSA and PSP patients were manually age and gender-matched with 30 PD patients from a research database.
All patients received oral potassium perchlorate to block thyroid uptake of free radioactive iodide. [^123I]FP-CIT was injected intravenously 3 hours before image acquisition at an approximate dose of 185 MBq (specific activity >185 MBq/nmol; radiochemical purity >99%). Subjects were imaged using a dual-head gamma camera (E.Cam; Siemens. Munich. Germany) with a fan-beam collimator. 60×30 second views per head over a 180° orbit on a 128×128 pixel matrix were acquired resulting in a total imaging time of 30 minutes. Image reconstruction was performed using a filtered back projection with a Butterworth filter (order 8. cut-off 0.6 cycles/cm; voxel size: 3.9 mm^3 after reconstruction). Scans were reoriented manually to ensure that left and right striatum were aligned.
ROIs were defined for the DAT-rich caudate nucleus and the SERT-rich thalamus from the automated anatomical labelling (AAL) atlas; the DAT-rich posterior putamen was bilaterally based on the AAL atlas as described elsewhere (Vriend, C. et al. 2014 Mov Disord; 29: 904-11) the SERT-rich pons ROI was based on the Talairach Daemon (TD) Lobes atlas; and the SERT-rich hypothalamus ROI was based on the TD Brodmann area+atlas and 2× dilated. All of these ROIs are implemented in the WFU Pickatlas 3.0 (Wake Forest University, Winston-Salem, N.C., USA).
Non-specific [^123I]FP-CIT binding in the cerebellum was used as a reference (REF) (WFU Pickatlas, AAL atlas; bilateral Crus 2), because the cerebellum is relatively devoid of DAT and SERT. The ratio of specific to non-specific binding (BR), was calculated in Statistical Parametric Mapping Software version 8 (SPM8; Wellcome Trust Centre for Neuroimaging. London. UK) by: [(ROI−REF)/REF], and used as the outcome measure.
Patient analyses were grouped by diagnosis (PD; MSA-P; MSA-C; PSP). MSA was split, since a difference is expected between DAT binding in MSA-P and MSA-C (Munoz E., et al. 2011 J Neurol; 258: 2248-2253).
For the ROI analysis, normality of data was assessed by plotting histograms, examining Q-Q plots and Kolmogorov-Smirnov test for normality. One-way ANOVA tests were used where appropriate. Post-hoc testing was done with Hochberg GT2 correction. An alpha level of 0.05 was used.
ROI analysis in groups without SSRI users (total group n=48: MSA-C=7; MSA-P=6; PSP=10; PD=25)

For test [4], the target named is dopamine transporter (DAT) (Homo sapiens, UniProt Q01959). As to conditions: presynaptic membrane of dopaminergic neurons; cited from earlier work.
Test [5] has as its target T1, SERT. As to conditions: cited from earlier work.

T1 sequence (P31645 whole entry): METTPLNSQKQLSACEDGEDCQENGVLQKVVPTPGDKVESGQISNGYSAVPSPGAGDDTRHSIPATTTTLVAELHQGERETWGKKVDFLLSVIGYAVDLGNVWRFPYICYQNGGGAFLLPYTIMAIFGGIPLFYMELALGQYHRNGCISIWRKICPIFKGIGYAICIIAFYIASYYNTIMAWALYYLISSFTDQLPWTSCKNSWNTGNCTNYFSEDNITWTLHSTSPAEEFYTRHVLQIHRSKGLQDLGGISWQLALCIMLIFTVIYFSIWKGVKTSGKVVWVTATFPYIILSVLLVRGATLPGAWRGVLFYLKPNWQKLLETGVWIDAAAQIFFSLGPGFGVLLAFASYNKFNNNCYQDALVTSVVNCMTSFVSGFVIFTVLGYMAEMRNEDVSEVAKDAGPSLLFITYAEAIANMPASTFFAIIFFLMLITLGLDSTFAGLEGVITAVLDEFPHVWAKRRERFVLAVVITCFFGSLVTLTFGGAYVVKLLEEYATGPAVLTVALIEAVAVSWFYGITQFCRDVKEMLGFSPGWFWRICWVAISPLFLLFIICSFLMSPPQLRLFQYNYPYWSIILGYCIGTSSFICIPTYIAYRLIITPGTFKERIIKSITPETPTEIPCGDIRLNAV
DAT, sequence (Q01959 whole entry): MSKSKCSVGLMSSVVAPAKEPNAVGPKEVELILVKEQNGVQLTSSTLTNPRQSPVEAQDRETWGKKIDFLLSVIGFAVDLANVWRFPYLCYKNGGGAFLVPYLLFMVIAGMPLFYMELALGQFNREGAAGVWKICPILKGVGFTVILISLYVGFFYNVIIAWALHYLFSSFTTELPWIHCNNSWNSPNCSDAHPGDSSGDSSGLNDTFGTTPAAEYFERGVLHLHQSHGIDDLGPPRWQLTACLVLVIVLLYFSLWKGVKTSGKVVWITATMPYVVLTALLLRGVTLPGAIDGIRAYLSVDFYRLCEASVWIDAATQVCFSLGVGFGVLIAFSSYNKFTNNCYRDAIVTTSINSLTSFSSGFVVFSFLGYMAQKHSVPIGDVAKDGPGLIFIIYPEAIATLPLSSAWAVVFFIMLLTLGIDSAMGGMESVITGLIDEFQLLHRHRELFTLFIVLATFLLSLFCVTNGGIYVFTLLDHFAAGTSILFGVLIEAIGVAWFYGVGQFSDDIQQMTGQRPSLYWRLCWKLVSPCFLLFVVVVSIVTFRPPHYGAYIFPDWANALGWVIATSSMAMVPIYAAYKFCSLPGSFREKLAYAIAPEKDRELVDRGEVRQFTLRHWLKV
serotonin transporter (SERT), sequence (P31645 whole entry, species assumed): as the sequence (P31645 whole entry) above
dopamine transporter (DAT), sequence (Q01959 whole entry, species assumed): as the sequence (Q01959 whole entry) above

With `COC(=O)[C@H]1[C@@H](c2ccc([123I])cc2)C[C@@H]2CC[C@H]1N2CCCF` [[^123I]FP-CIT, [^123I]N-w-fluoropropyl-2β-carbomethoxy-3β-(4-iodophenyl) nortropane], the “mean hypothalamic [123I]FP-CIT binding ratio” value at SERT [1] (MSA-C patients) is reported as 0.78; on SERT [1] (MSA-P patients), 0.45; on SERT [1] (PD patients), 0.67; on SERT [1] (PSP patients), 0.47. In addition, at SERT [2] (MSA-C vs PSP), the “hypothalamus binding ratios, between-group comparison (voxel-based)” value is listed as “higher binding ratios in hypothalamus in MSA-C than in PSP”. The “hypothalamus binding, between-group comparison (voxel-based)” value at SERT [2] (PD vs MSA-P or PSP) is reported as “statistically significantly higher in PD than in MSA-P or PSP”. Besides, in test [3], the “affinity for the serotonin transporter (SERT)” value is “modest affinity”. Also, the “mean [123I]FP-CIT binding ratio, left caudate” value on DAT (MSA-C patients) turned out to be 1.99; on DAT (PD patients), 1.87; on DAT (PSP patients), 1.28. For the same compound, the “mean [123I]FP-CIT binding ratio, left posterior putamen” value is given as 2.12 at DAT (MSA-C patients), 1.36 on DAT (MSA-P patients), 1.58 on DAT (PD patients) and 1.29 at DAT (PSP patients). The “mean [123I]FP-CIT binding ratio, right caudate” value on DAT (MSA-C patients) is 2.16; on DAT (PD patients), 1.92; on DAT (PSP patients) it was 1.39. Besides, the results for the “mean [123I]FP-CIT binding ratio, right posterior putamen” value at DAT (MSA-C patients) and on DAT (MSA-P patients) were 1.95 and 1.19, respectively. Further, in test [4], the “affinity to the dopamine transporter (DAT)” value is “high affinity”. On SERT [5] (Joling et al. 2016), the “hypothalamus binding, MSA-P and PSP vs PD” value is “lower binding in the hypothalamus in MSA-P and PSP patients than in PD patients”. Moreover, the “midbrain binding, PSP vs PD” value on SERT [5] (Roselli et al. 2010) was “lower in PSP patients than in PD patients”.
